Test results reported in patent US9206191B2, “Indazoles for the treatment and prophylaxis of respiratory syncytial virus infection” (Hoffmann-La Roche Inc., priority 2012, dated 2015).
pEC50: −log10 of the molar value.

Tested on: RSV Long strain
Assay: Viral Cytopathic Effect (CPE) Assay
Assay type: cell-based
Details: human respiratory syncytial virus, 144 h, cell viability after 6 days, Cell Counting kit-8

| Structure (SMILES) | pEC50 |
| --- | --- |
| CS(=O)(=O)c1nn(Cc2nc3cc(Cl)ccc3n2[C@H]2C[C@H](CO)C2)c2cnccc12 [Example 11, [trans-3-(5-chloro-2-{[3-(methylsulfonyl)-1H-pyrazolo[3,4-c]pyridin-1-yl]methyl}-1H-benzimidazol-1-yl)cyclobutyl]methanol] | 8.52 |
| CS(=O)(=O)c1nn(Cc2nc3cc(Cl)ccc3n2C2CCC(O)CC2)c2cnccc12 (stereo not shown) [Example 2-11, 4-(5-Chloro-2-{[3-(methylsulfonyl)-1H-pyrazolo[3,4-c]pyridin-1-yl]methyl}-1H-benzimidazol-1-yl)cyclohexanol] | 8.09 |
| CS(=O)(=O)c1nn(Cc2nc3cc(Cl)ccc3n2CCC(O)C(F)F)c2cnccc12 (stereo not shown) [Example 2-44, 4-(5-chloro-2-{[3-(methylsulfonyl)-1H-pyrazolo[3,4-c]pyridin-1-yl]methyl}-1H-benzimidazol-1-yl)-1,1-difluorobutan-2-ol] | 8.48 |
| CS(=O)(=O)c1nn(Cc2nc3cc(Cl)ccc3n2CCCCO)c2cnccc12 [Example 2-30, 4-(5-Chloro-2-{[3-(methylsulfonyl)-1H-pyrazolo[3,4-c]pyridin-1-yl]methyl}-1H-benzimidazol-1-yl)butan-1-ol] | 8.32 |
| CS(=O)(=O)CCn1c(Cn2nc(S(C)(=O)=O)c3ccccc32)nc2cc(Cl)ccc21 [Example 1-12, 1-({5-Chloro-1-[2-(methylsulfonyl)ethyl]-1H-benzimidazol-2-yl}methyl)-3-(methylsulfonyl)-1H-indazole] | 7.58 |
| CS(=O)(=O)c1nn(Cc2nc3cc(Cl)ccc3n2C2CCS(=O)(=O)C2)c2ccccc12 (stereo not shown) [Example 2-2, 1-{[5-Chloro-1-(1,1-dioxidotetrahydrothiophen-3-yl)-1H-benzimidazol-2-yl]methyl}-3-(methylsulfonyl)-1H-indazole] | 8.10 |
| CC(=O)N1CCC(n2c(Cn3nc(S(C)(=O)=O)c4ccncc43)nc3cc(Cl)ccc32)C1 (stereo not shown) [Example 2-16, 1-[3-(5-Chloro-2-{[3-(methylsulfonyl)-1H-pyrazolo[3,4-c]pyridin-1-yl]methyl}-1H-benzimidazol-1-yl)pyrrolidin-1-yl]ethanone] | 7.79 |
| CS(=O)(=O)c1nn(Cc2nc3cc(Cl)ccc3n2C2CCC(F)(F)C2)c2ccccc12 (stereo not shown) [Example 2-9, 1-{[5-Chloro-1-(3,3-difluorocyclopentyl)-1H-benzimidazol-2-yl]methyl}-3-(methylsulfonyl)-1H-indazole] | 8.16 |
| CS(=O)(=O)c1nn(Cc2nc3cc(Cl)ccc3n2C2COC2)c2cnccc12 [Example 2-5, 1-{[5-Chloro-1-(oxetan-3-yl)-1H-benzimidazol-2-yl]methyl}-3-(methylsulfonyl)-1H-pyrazolo[3,4-c]pyridine] | 7.65 |
| CS(=O)(=O)c1nn(Cc2nc3cc(Cl)ccc3n2[C@H]2C[C@@](C)(O)C2)c2cnccc12 [Example 2-33, cis-3-(5-Chloro-2-{[3-(methylsulfonyl)-1H-pyrazolo[3,4-c]pyridin-1-yl]methyl}-1H-benzimidazol-1-yl)-1-methylcyclobutanol] | 8.01 |
| CS(=O)(=O)c1nn(Cc2nc3cc(Cl)ccc3n2CCCC(F)(F)F)c2c[n+]([O-])ccc12 [Example 4-2, 1-{[5-Chloro-1-(4,4,4-trifluorobutyl)-1H-benzimidazol-2-yl]methyl}-3-(methylsulfonyl)-1H-pyrazolo[3,4-c]pyridine 6-oxide] | 7.80 |
| CS(=O)(=O)c1nn(Cc2nc3cc(Cl)ccc3n2C2CNC(=O)C2)c2cnccc12 (stereo not shown) [Example 7, 4-(5-Chloro-2-{[3-(methylsulfonyl)-1H-pyrazolo[3,4-c]pyridin-1-yl]methyl}-1H-benzimidazol-1-yl)pyrrolidin-2-one] | 8.07 |
| CC(C)(O)CCn1c(Cn2nc(S(C)(=O)=O)c3ccncc32)nc2cc(Cl)ccc21 [Example 2-29, 4-(5-Chloro-2-{[3-(methylsulfonyl)-1H-pyrazolo[3,4-c]pyridin-1-yl]methyl}-1H-benzimidazol-1-yl)-2-methylbutan-2-ol] | 8.09 |
